Data published in a melting point compilation (Tetko et al.; mined from patent text by program, amines drawn as free bases though some values may be those of a salt).
Residues, ends and D or L forms follow the SMILES beside them. *: point of attachment. Cbz = O=C(OCc1ccccc1)*; Boc = CC(C)(C)OC(=O)*; OBn = c1ccc(CO*)cc1

SMILES	melting point [°C]
COc1cc(Cc2cnc(NCCSCc3nccs3)[nH]c2=O)ccn1	106
Nc1cccc(CCCOCCCCCCNCC(O)c2cc(Cl)c(N)c(Cl)c2)n1 (stereo not drawn)	62 to 65
CC(C)(C)OC(=O)C1(O/N=C(\C(=O)O)c2csc(NC(c3ccccc3)(c3ccccc3)c3ccccc3)n2)CC1	157
CC=C1CCC2C3CCC4CC(O)CCC4(C)C3C(N(C)C)CC12C (stereo not drawn)	59 to 61
CN1CCN(C(=O)c2cc(-c3ccccc3)c(=O)[nH]c2-c2c(Cl)cccc2C#N)CC1	250 to 253
COc1ccc2c(c1)Sc1ccc(SC)cc1C(=O)C2	127
CCC1c2ncn(CC)c2CCN1C(=S)NC(C)C (stereo not drawn)	196
Cc1nc(-c2ccc(Cl)cc2)sc1C(=O)NCc1ccc(OC(C)(C)C(=O)O)cc1	131
Cc1ccc(C2CC(=O)OC(=O)C2)cc1	160 to 162
CCOC(=O)C(C#N)C(=O)c1ccc[nH]1 (stereo not drawn)	138 to 139
CCc1c(Oc2ncc(C(F)(F)F)cc2Cl)n[nH]c1C	74 to 75
C[C@@H](Nc1ncnc2ccncc12)c1ccccc1	138
CC1(C)OC(=O)Nc2ccc(-c3cccc(C#N)c3)cc21	236 to 237
Cc1cncc(C(=O)OC(C)c2nc3c(c(=O)n(C)c(=O)n3C)n2C)c1 (stereo not drawn)	110
O=[N+]([O-])c1cccnc1Sc1nc(Cl)no1	84
CS(=O)(=O)c1ccc(-c2cnn(-c3cccc(Cl)c3)c(=O)c2Oc2ccc(F)cc2)cc1	211 to 213
C#CCOC(=O)c1cc(Cl)c(OCC#C)c(OCC#C)c1	98 to 99
CCc1cn(C2CC(O)C(CN(C)Cc3ccccc3)O2)c(=O)[nH]c1=O (stereo not drawn)	135 to 137
COc1ccc(-c2[nH]c3ccc(OCc4ccccc4)cc3c2C)cc1	158
CCS(=O)(=O)c1nn(-c2ccccc2)c(=O)c2c(N)scc12	190 to 191
CCCCCCc1ccc(-n2c(-c3ccc(CC(=O)O)cc3)ccc2-c2ccc(CC(=O)O)cc2)cc1	129 to 130
CS(=O)(=O)c1ccc(C2=C(c3ccc(F)cc3)C(=O)OC2)c(F)c1	160 to 162
N#CC1(c2ccc(Cl)c(Cl)c2)CC(Cl)=C(Cl)N1CCO (stereo not drawn)	143 to 145

SMILES	melting point [°C]
COc1c(CN2CCC(=O)C(C(c3ccccc3)c3ccccc3)C2)cc(C(C)(C)C)cc1C(C)(C)C (stereo not drawn)	136 to 138
CCCSc1nc(C)nc(S)c1[N+](=O)[O-]	162 to 164
CCOc1cc2c(cc1OCC)C(CC)C(C)=NN=C2c1ccc(OC)c(OC)c1 (stereo not drawn)	91 to 93
O=C(O)c1ccc(NC(=O)[C@H](Cc2ccc(-c3ccccc3)cc2)NCP(=O)(O)O)cc1	270 to 274
CS(=O)(=O)c1ccc(-c2cnn(-c3ccc(F)c(Cl)c3)c(=O)c2C2CCCCC2)cc1	180 to 181
Cc1cnc(C)c(Oc2ccc(OCn3cnc(Cl)c3Cl)cc2)n1	84 to 85
O=C(O)[C@H](Cc1ccccc1)NS(=O)(=O)c1ccc(N2CCC(Cc3ccccc3)CC2)cc1	164 to 165
O=C(Nc1cnc2c(c1)nc1n2CCC1O)c1cc2cc(C(F)(F)F)ccc2n1Cc1cccc(F)c1 (stereo not drawn)	267 to 268
Cc1sc(C)c2c1CCCC2(O)c1cn(C(c2ccccc2)(c2ccccc2)c2ccccc2)cn1 (stereo not drawn)	111 to 115
CCCCOc1cc(CCS(=O)(=O)NC(=O)OCC(C)C)n(Cc2ccc(Cl)cc2Cl)n1	114 to 116
COc1cc2oc(=O)c(CCCl)c(C)c2cc1O	230 to 235
COc1cc(C(=O)N2CCC(CCN3CCCN(c4nc5ccccc5n4CCCC(C)=O)CC3)(c3ccccc3)C2)cc(OC)c1OC (stereo not drawn)	95 to 112
O=P(ONc1ccccc1)(ONc1ccccc1)Oc1ccccc1	176 to 178
O=C1Nc2ccc(Br)cc2C(c2ccccc2)=NC1O (stereo not drawn)	190 to 192
CC(=O)N1CCN(c2ccc(-c3ccn[nH]3)cc2)CC1	257 to 259
CCOC(=O)c1nc2cc(NC(=O)c3c(C(=O)N4CCC4)cnn3C)ccn2n1	252 to 255
CSCCC(NC(=O)OC(C)(C)C)C(=O)NC(C)C(=O)NC(C(=O)NC(CCCCNC(=O)OCc1ccccc1)C(=O)OCc1ccccc1)C(C)C (stereo not drawn) (Boc-MAVK(Cbz)-OBn; configuration not given here)	169 to 171
CN1CCN(c2ccccc2C=CC(=O)Nc2ccc(Cl)c(Cl)c2)CC1	192 to 193
O=c1[nH]c2ncc(-c3cnc4[nH]cnc4c3)nc2n1CC1CCOCC1	367 to 370
Cc1cccc(Nc2nc3c(s2)CCc2[nH]ncc2-3)n1	280
Clc1nc2ccc(Br)cc2cc1Cc1ccccc1	102 to 104
CCON(Cc1ccc(F)cc1)C(=O)C1=C(O)C(=O)N(C)C1	113 to 114
Cc1nc(Sc2cc(C(F)(F)F)ccn2)sc1CC(=O)O	122 to 123

SMILES	melting point [°C]
CC(=O)Nc1cc(Br)sc1Br	114 to 116
CC(C)(O)C1CCC(CNC(=O)c2cccnc2Oc2ccc(F)cc2)CC1 (stereo not drawn)	78 to 80
CC(C(N)=O)c1ccc2c(c1)C(=O)Cc1ccc(F)cc1S2 (stereo not drawn)	176 to 178
CCN(CC)c1ccc(/C=C/c2cc(/C=C/c3ccc4cc[nH]c4c3)[nH]n2)c(OCCN2CCCCC2)c1	102 to 104
CCOc1nc2c(nc1C(=O)N1CCN(C)CC1)c(C)nn2CC	111 to 112
COc1ccc2cccc(C=CN3C(=O)c4ccccc4C3=O)c2c1	146
Cc1ccc(NC(=O)c2ccc(CN3CCN(CCO)CC3)c(C(F)(F)F)c2)cc1Nc1nccc(-c2cncnc2)n1	188 to 192
CC(=O)OC1CSC(Oc2ccccc2[N+](=O)[O-])C(OC(C)=O)C1OC(C)=O (stereo not drawn)	148
COc1cc(CCO)cc(OC)c1-c1ccc(C[C@H](NC(=O)c2c(Cl)cccc2Cl)C(=O)OC(C)(C)C)cc1	96 to 98
NN(C(=O)c1ccc(Cl)c(S(N)(=O)=O)c1)c1ccc(C(=O)c2ccccc2)cc1[N+](=O)[O-]	148
ON=Cc1ccc2c(c1)ncn2-c1cccc(N2CCCCC2)c1	213 to 214
COc1ccc2[nH]c(C(=O)C3(c4ccc(Cl)cc4)CCCC3)cc2c1	157 to 159
CC(CN1CCN(c2ccc(C(=O)O)cc2)CC1)Oc1ccccc1 (stereo not drawn)	152 to 154
c1ccc(COc2cc(OCC3CCCCC3)ccc2CNc2ccncc2)cc1	131 to 132
COC(=O)C(=O)NC1CC(C)(C)N(OC2CCCCC2)C(C)(C)C1	124 to 126
O=C([O-])C12CC[N+](Cc3ccc4c(c3)Nc3nccnc3S4)(CC1)CC2	229 to 230
COC(=O)c1ccn2ccnc2c1	143
CCOC(=O)C1=CC(OC)(OC)CCC1S(=O)(=O)Nc1ccc(F)cc1Cl (stereo not drawn)	97 to 98
CN1c2ccncc2NC(CCc2ccccc2)c2cccn21 (stereo not drawn)	92 to 94
c1cnc2c(c1)-c1sccc1C2Cc1ccncc1 (stereo not drawn)	178 to 181
Cc1cc(Cn2nc(-c3ccccc3)oc2=O)cc(C(C)(C)C)c1O	152
O=c1[nH]c(CCN2CCN(c3ccccc3)CC2)c(-c2ccc(F)cc2)[nH]1	232 to 234
